Reference: article PMC12293048, “New Benzimidazole 3′-Deoxynucleosides: Synthesis and Antiherpes Virus Properties” (Biomolecules, 2025)
Values joined by “and” are separate entries in the source; they are usually repeats but may differ in a detail not shown here. Equal entries are not always repeated. Where two headings read alike, the source gives them in different places.

Assays:
[1] = test system: HSV-1/L2; test: CPE inhibition assay, HSV-1 reference strain L2 in Vero E6 cells; format: cell-based, herpes simplex virus 1; conditions: for IC95: Human alphaherpesvirus 1, Vero C1008, CPE inhibited almost completely
Description: (§1) Vero 6 cells for determining cytotoxicity and antiviral activity were cultured according to the method described in [29].
Vero E6 cells were then infected with the infection material at an MOI of 0.01 PFU/cell; incubation was performed at 37 °C in an atmosphere of 5% CO2. […] The duration of incubation was 48 h and 72 h for MOI 0.01 PFU/mL, respectively. […] The results of three independent experiments are shown in Table S1 (Supplementary Materials).

[2] = test system: HSV-1/L2/R^ACV; test: microbe, parasite or virus in culture; format: cell-based, herpes simplex virus 1; conditions: for IC95: Human alphaherpesvirus 1, Vero C1008, read-out: IC95 HSV-1/L2/R^ACV, CPE inhibited almost completely, Vero E6, MOI 0.01, acyclovir-resistant strain
Description: as §1
In 96-well plastic plates with the generated cell monolayer, serial dilutions of the compounds were prepared at […] 1:2 with the maintenance medium (Eagle′s medium and medium 199, mixed in a ratio 1:1). Vero E6 cells were then infected with the infection material at an MOI of 0.01 PFU/cell; incubation was performed at 37 °C in an atmosphere of 5% CO2. Cytotoxicity was determined quantitatively by the trypan blue exclusion method and expressed as CD50: the concentration of the drug at which 50% of cells die after 72 h. […] The duration of incubation was 48 h and 72 h for MOI […], respectively. […] An antiviral activity was assessed by determining ID50 and ID95 (concentrations of compounds that inhibit the development of virus-induced CPE as compared with the control by 50% and almost completely). […] The results of three independent experiments are shown in Table S1 (Supplementary Materials).

[3] = test system: Vero E6 cells; test: Cytotoxicity, trypan blue exclusion; format: cell-based; conditions: for CD50: 50% cytotoxic concentration, Vero E6 cells, 72 h; for MTC (maximal tolerable concentration): highest concentration that does not cause death of Vero E6 cells
[4] = test system: HCMV; conditions: cited from earlier work
[5] = test system: HSV-1; conditions: cited from earlier work
[6] = Human alphaherpesvirus 1, Vero C1008, read-out: IC50 HSV-1/L2, CPE inhibition by 50%, Vero E6, MOI 0.01
[7] = read-out: IC50 HSV-1/L2, CPE inhibition by 50%, Vero E6, MOI 0.01
[8] = Human alphaherpesvirus 1, Vero C1008, read-out: IC50 HSV-1/L2/R^ACV, CPE inhibition by 50%, Vero E6, MOI 0.01, acyclovir-resistant TK-negative strain

Compound	IC95 ([1]; Vero E6, MOI 0.01) [µM]	IC50 [1, 6] [µM]	IC50 [1, 7] [µM]	IC50 [2, 8] [µM]	CD50 [3] [µM]	MTC (maximal tolerable concentration) [3] [µM]	IC95 [2] [µM]	IC50 [4] [µM]	IC50 [5] [µM]	IC50 ([2]; Human alphaherpesvirus 1, Vero C1008, virus variant profoundly resistant to acyclovir)
c1ccc2[nH]cnc2c1 [Compound 1, Benzimidazole]	4240	1060	1060	1060	6313.85 ± 167.47	4235.49				
Fc1cc2nc[nH]c2cc1F [Compound 2, 5,6-Difluorobenzimidazole]	1620	203	203	406	2433.81 ± 37.72	1623.06				
Fc1cc(F)c2[nH]cnc2c1 [Compound 3, 4,6-Difluorobenzimidazole]	1620	812	812	812	2489.32 ± 92.46	811.53				
Fc1cc2nc[nH]c2c(F)c1F [Compound 4, 4,5,6-Trifluorobenzimidazole]	1450	363	363	363	2179.98 ± 27.03	1453.32				
COc1c(F)cc2nc[nH]c2c1F [Compound 5, 4,6-Difluoro-5-methoxybenzimidazole]	2720	1020		1360	2909.48 ± 123.18	1358.40				
Nc1nc2ccccc2[nH]1 [Compound 6, 2-aminobenzimidazole]	939	470	470	705	1422.89 ± 18.04	939.43				
COc1cc2nc(N)[nH]c2cc1F [Compound 7, 2-amino-5-fluoro-6-methoxybenzimidazole]	690	173	173	173	2165.79 ± 33.74	1380.68				
Nc1nc2cc(F)c(F)cc2[nH]1 [Compound 8, 2-Amino-5,6-difluorobenzimidazole]	739	370	370	370	1659.39 ± 60.16	739.43				
OC[C@@H]1C[C@@H](O)[C@H](n2cnc3ccccc32)O1 [Compound 9, 1-(β-D-3′-Deoxyribofuranosyl)benzimidazole]	2510	626	626	1250	> 5019.25	2505.13	5020			
OC[C@@H]1C[C@@H](O)[C@H](n2cnc3cc(F)c(F)cc32)O1 [Compound 10, 5,6-Difluoro-1-(β-D-3′-deoxyribofuranosyl)benzimidazole]	985	246	246	1480	2901.81 ± 60.28	1970.86	≥ 1970			
OC[C@@H]1C[C@@H](O)[C@H](n2cnc3c(F)cc(F)cc32)O1 [Compound 11a, 4,6-difluoro-1-(β-D-3′-deoxyribofuranosyl)benzimidazole]	1000	251	251	< 2010	> 2007.37	1003.68	2010			
OC[C@@H]1C[C@@H](O)[C@H](n2cnc3c(F)c(F)c(F)cc32)O1 [Compound 12a, 4,5,6-trifluoro-1-(β-D-3′-deoxyribofuranosyl)benzimidazole]	1000	250	250	494	≥ 3999.31	1999.65	2000			
COc1c(F)cc2c(ncn2[C@@H]2O[C@H](CO)C[C@H]2O)c1F [Compound 13, 4,6-Difluoro-5-metoxy-1-(β-D-3′-deoxyribofuranosyl)benzimidazole]	3330	3000		3000		1665.22				
Nc1nc2cc(F)c(F)cc2n1[C@@H]1O[C@H](CO)C[C@H]1O [Compound 16, 2-Amino-5,6-difluoro-1-(β-D-3′-deoxyribofuranosyl)benzimidazole]	> 1990	996	996	996	3315.58 ± 141.99	1991.35	> 1990			
OC[C@H]1O[C@@H](n2cnc3cc(Cl)c(Cl)cc32)[C@H](O)[C@@H]1O [DRB, 5,6-dichloro-1-(β-D-ribofuranosyl)benzimidazole]								42	30	
Nc1nc2c(ncn2COCCO)c(=O)[nH]1 [acyclovir, reference compound]										> 100 µg/mL and > 444 µM
NC(=O)c1ncn([C@@H]2O[C@H](CO)[C@@H](O)[C@H]2O)n1 [ribavirin, reference compound]	2050			512		4095.00				
